Assays:
Assay in all cases: DSF thermal shift, kinase panel
Assay type in all cases: binding
Conditions in all cases: 10 μM compound
[1] = target: T1, PLK1A (Homo sapiens, UniProt P53350)
T1 construct: purchased in-house (home-made panel, SGC-style construct names)
Description: (§1) The corresponding dianilino-TDZs (1–5) were tested on a panel of 46 protein kinases representing the major kinome branches at a concentration of 10 μM using a Differential Scanning Fluorimetry (DSF). Only analogues 1–3 induced a significant (>2 °C) thermal shift when incubated with a subset of the proteins (Table 1).
(§2) Kinase selectivity assay—A home-made kinase panel was generated for the following enzymes: AAK1, BMP2K, BMX, BRAF, CAMK1D, CAMK1G, CAMKK1, CAMKK2B, CDC42BPA, CDK2, CDKL1, CHEK2, CLK1, CSNK1G1, CSNK1G3, CSNK2A1, DYRK1A, DYRK2A, EPHA2, GAK, GSG2, MAPK1, MAP2K7, MAPK14B, MAPK3, PHKG2, PIM1, PLK1, PKMYT1, PRPF4B, RPS6KA1A, RPS6KA5A, RPS6KA6A, SLK, SRPK1, SRPK2, STK3, STK6, STK10, STK17A, STK24, STK38L, TRIB2, TTK, VRK1 and VRK2. Proteins were produced in E. coli, purified in a Ni-chelate column, followed by overnight digestion using TEV protease (made in house with an N-terminal 6xHis tag) and dialysis to remove imidazole. To clear samples of uncleaved proteins and the TEV protease, samples were loaded on new Ni-chelate columns. The flow through was collected, concentrated and loaded to a HiLoad Superdex 200 16/600 column (GE Healthcare, Chicago, IL, USA) for final polishing and buffer exchange.
(§3) Starting from 100 µM protein stocks, our kinase panel enzymes were diluted to 1 µM in buffer 100 mM K2HPO4 pH 7.5 containing 150 mM NaCl, 10% glycerol and 5X dye (Applied Biosystems catalogue 4461806). The protein/dye mixture was transferred to a 384-well PCR microplate having 20 µL per well. Compounds in DMSO at 10 mM concentration were added in 20 nL volume, using a liquid handling device setup with a pin head, to make 10 µM compound concentration in the assay plate.
(§4) Protein thermal shift data was measured in a qPCR instrument (Applied Biosystems QuantStudio 6) programmed to equilibrate the plate at 25 °C for 5 min followed by ramping the temperature to 95 °C at a rate of 0.05 °C/s. Data was processed using Protein Thermal shift software (Applied Biosystems) by fitting experimental curves to a Boltzmann function to calculate differential thermal shifts (dTm) referenced to protein/dye in 0.2% DMSO.

[2] = target: T2, PKMYT1A (Homo sapiens, UniProt Q99640)
T2 construct: purchased in-house (home-made panel, SGC-style construct names)
T2 sequence (Q99640 1-499): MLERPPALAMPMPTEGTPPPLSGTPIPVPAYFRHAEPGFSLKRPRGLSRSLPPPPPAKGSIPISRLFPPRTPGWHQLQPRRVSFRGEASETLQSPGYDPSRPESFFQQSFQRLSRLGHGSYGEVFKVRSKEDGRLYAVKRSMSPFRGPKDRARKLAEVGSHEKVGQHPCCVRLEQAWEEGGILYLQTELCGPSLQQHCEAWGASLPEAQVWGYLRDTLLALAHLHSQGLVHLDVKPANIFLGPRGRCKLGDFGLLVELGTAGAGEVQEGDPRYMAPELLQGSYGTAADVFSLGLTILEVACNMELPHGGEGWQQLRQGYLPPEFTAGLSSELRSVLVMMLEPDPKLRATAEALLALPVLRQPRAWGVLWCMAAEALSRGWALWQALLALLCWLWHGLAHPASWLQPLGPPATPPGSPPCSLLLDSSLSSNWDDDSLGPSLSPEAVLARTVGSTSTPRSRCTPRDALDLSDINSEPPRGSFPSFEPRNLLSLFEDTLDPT
Description: as §1, §2, §3, §4

[3] = target: T3, CAMK1G (Homo sapiens, UniProt Q96NX5)
T3 construct: purchased in-house (home-made panel, SGC-style construct names)
Description: as §1, §2, §3, §4

[4] = target: T4, BMP2K (Homo sapiens, UniProt Q9NSY1)
T4 construct: purchased in-house (home-made panel, SGC-style construct names)
T4 sequence (Q9NSY1 whole entry): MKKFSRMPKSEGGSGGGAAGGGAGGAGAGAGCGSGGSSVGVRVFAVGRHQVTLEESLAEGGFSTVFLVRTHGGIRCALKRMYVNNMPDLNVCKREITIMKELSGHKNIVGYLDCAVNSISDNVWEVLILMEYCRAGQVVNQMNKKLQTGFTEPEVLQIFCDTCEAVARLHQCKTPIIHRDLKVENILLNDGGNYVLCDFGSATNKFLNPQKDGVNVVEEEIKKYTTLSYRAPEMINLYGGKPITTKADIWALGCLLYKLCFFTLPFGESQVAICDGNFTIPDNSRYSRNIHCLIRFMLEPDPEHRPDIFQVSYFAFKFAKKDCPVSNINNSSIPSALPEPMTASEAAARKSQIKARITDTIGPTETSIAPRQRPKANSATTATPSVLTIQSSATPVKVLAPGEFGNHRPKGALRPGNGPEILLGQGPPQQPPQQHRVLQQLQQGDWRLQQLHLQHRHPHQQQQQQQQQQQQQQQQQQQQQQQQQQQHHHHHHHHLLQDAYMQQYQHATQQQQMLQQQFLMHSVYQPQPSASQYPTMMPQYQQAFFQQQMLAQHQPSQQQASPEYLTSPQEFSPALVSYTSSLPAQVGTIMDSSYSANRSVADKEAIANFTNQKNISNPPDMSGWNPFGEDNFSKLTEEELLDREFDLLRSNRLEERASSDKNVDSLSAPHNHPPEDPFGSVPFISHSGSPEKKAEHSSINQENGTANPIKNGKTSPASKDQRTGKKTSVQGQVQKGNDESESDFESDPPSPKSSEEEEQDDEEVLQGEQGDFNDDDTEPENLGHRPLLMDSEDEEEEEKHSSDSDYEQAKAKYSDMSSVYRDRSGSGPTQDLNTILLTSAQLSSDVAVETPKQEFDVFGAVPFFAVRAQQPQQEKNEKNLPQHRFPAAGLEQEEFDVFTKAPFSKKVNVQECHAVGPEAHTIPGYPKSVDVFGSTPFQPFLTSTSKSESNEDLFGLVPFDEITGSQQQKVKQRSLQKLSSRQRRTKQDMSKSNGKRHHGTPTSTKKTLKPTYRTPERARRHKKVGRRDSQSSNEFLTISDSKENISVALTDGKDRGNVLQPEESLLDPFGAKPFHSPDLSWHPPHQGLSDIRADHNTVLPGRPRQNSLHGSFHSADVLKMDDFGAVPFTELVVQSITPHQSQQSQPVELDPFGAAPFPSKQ
Description: as §1, §2, §3, §4

[5] = target: T5, SRPK1A (Homo sapiens, UniProt Q96SB4)
T5 construct: purchased in-house (home-made panel, SGC-style construct names)
T5 sequence (Q96SB4 whole entry): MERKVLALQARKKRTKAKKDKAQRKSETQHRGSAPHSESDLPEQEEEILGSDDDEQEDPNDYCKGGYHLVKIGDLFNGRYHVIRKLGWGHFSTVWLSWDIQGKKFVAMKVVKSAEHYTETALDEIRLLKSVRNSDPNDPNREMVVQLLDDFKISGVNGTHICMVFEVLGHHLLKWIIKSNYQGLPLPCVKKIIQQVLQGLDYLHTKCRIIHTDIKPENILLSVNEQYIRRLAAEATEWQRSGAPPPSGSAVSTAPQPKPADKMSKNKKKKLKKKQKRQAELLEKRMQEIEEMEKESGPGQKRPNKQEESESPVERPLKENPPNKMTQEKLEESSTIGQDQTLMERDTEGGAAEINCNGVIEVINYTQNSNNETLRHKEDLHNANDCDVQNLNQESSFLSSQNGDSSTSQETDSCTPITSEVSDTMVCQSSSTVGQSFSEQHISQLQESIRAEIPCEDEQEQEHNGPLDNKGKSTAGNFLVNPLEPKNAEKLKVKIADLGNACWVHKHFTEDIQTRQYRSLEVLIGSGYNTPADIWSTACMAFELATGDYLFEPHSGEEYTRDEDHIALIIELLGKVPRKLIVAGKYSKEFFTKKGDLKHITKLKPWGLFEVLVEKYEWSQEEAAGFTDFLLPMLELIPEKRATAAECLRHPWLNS
Description: as §1, §2, §3, §4

[6] = target: T6, RPS6KA6A (Homo sapiens, UniProt Q9UK32)
T6 construct: purchased in-house (home-made panel, SGC-style construct names)
T6 sequence (Q9UK32 whole entry): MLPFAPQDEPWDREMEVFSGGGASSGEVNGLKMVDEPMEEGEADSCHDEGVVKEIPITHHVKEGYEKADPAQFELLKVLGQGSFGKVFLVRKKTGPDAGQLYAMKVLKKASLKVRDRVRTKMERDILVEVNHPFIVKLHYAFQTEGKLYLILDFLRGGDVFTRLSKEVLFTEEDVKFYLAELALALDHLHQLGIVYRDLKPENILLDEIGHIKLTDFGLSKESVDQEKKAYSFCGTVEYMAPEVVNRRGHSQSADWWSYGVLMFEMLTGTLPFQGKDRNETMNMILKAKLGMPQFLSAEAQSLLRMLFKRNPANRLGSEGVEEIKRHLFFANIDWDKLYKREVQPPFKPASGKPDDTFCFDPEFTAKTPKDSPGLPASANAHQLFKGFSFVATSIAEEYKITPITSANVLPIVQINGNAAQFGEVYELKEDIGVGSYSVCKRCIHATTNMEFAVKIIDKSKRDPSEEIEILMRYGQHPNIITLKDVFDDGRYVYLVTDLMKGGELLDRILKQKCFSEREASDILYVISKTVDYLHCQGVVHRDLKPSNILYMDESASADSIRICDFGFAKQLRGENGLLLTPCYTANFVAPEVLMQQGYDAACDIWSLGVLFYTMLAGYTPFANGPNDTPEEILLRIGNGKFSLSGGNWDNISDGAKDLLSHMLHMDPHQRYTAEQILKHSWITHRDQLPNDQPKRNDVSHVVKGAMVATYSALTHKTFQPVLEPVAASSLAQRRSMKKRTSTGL
Description: as §1, §2, §3, §4

[7] = target: T7, MAPK1A (Homo sapiens, UniProt P28482)
T7 construct: purchased in-house (home-made panel, SGC-style construct names)
T7 sequence (P28482 whole entry): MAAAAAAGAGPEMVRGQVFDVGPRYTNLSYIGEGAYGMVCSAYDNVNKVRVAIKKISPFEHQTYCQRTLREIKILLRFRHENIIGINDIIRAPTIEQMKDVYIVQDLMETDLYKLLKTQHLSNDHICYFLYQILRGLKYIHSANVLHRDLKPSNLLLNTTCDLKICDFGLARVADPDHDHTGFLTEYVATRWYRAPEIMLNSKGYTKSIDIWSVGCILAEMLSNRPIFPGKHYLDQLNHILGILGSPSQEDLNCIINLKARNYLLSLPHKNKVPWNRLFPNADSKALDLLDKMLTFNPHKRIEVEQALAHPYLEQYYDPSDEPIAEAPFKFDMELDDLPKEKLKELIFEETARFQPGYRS
Description: as §1, §2, §3, §4

[8] = target: T8, STK6A (Homo sapiens, UniProt O14965)
T8 construct: TEV-cleavable (cleaved yes); made in house; host or cells: E. coli
T8 sequence (O14965 1-403): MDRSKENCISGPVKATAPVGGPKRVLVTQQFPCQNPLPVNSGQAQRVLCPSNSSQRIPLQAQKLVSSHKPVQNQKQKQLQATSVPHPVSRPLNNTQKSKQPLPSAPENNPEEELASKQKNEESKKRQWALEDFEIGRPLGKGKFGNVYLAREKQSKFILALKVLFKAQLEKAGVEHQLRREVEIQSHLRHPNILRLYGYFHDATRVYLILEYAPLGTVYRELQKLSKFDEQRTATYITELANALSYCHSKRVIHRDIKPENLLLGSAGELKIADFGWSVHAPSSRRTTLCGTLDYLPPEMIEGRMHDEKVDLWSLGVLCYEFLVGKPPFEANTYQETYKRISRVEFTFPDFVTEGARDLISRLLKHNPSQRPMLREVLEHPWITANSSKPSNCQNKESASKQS
Description: as §1, §2, §3, §4

[9] = target: T9, SLKA (Homo sapiens, UniProt Q9H2G2)
T9 construct: purchased in-house (home-made panel, SGC-style construct names)
Description: as §1, §2, §3, §4

[10] = target: T10, VRK2A (Homo sapiens, UniProt Q86Y07)
T10 construct: TEV-cleavable (cleaved yes); made in house; host or cells: E. coli
T10 sequence (Q86Y07 whole entry): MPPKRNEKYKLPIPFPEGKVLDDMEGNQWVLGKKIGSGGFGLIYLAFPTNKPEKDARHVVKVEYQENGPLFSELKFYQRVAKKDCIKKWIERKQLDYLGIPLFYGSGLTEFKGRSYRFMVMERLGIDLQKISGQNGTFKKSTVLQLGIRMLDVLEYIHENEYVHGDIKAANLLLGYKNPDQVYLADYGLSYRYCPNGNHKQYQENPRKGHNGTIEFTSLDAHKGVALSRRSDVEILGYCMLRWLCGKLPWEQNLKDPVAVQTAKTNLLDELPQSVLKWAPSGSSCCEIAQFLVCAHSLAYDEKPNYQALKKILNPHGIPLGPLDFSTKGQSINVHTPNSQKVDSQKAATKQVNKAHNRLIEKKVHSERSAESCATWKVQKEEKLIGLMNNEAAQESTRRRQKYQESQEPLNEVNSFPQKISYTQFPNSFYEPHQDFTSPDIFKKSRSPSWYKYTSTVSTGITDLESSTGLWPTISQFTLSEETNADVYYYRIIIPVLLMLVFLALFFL
Description: as §1, §2, §3, §4

[11] = target: T11, MAPK14B (Homo sapiens, UniProt Q16539)
T11 construct: purchased in-house (home-made panel, SGC-style construct names)
T11 sequence (Q16539 whole entry): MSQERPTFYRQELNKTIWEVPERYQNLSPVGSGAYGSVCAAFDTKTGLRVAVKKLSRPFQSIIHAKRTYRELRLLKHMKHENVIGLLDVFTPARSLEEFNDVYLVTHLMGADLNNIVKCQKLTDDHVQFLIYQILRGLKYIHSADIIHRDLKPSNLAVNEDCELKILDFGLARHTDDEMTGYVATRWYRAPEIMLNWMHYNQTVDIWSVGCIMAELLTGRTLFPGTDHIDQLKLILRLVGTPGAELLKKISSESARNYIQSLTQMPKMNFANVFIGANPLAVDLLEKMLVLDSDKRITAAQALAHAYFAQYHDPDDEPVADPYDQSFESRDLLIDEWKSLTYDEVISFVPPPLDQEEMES
Description: as §1, §2, §3, §4

[12] = target: T12, DYRK1AA (Homo sapiens, UniProt Q13627)
T12 construct: purchased in-house (home-made panel, SGC-style construct names)
Description: as §1, §2, §3, §4

[13] = target: T13, CHEK2 (Homo sapiens, UniProt O96017)
T13 construct: purchased in-house (home-made panel, SGC-style construct names)
T13 sequence (O96017 whole entry): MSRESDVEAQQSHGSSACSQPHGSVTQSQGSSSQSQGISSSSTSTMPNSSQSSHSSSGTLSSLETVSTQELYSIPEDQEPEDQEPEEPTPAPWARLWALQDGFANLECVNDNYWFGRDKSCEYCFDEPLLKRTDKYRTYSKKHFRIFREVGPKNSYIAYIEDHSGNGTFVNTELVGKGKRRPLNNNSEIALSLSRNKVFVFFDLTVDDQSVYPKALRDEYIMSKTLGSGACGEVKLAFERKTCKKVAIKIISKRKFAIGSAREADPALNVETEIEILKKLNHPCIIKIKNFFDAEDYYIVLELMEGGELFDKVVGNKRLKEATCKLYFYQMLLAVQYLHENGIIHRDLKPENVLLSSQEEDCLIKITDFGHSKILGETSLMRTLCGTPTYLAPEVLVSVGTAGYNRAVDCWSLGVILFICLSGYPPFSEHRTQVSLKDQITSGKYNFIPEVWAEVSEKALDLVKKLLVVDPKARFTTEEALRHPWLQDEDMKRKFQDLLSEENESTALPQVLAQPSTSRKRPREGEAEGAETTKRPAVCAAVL
Description: as §1, §2, §3, §4

T1 sequence (P53350 whole entry): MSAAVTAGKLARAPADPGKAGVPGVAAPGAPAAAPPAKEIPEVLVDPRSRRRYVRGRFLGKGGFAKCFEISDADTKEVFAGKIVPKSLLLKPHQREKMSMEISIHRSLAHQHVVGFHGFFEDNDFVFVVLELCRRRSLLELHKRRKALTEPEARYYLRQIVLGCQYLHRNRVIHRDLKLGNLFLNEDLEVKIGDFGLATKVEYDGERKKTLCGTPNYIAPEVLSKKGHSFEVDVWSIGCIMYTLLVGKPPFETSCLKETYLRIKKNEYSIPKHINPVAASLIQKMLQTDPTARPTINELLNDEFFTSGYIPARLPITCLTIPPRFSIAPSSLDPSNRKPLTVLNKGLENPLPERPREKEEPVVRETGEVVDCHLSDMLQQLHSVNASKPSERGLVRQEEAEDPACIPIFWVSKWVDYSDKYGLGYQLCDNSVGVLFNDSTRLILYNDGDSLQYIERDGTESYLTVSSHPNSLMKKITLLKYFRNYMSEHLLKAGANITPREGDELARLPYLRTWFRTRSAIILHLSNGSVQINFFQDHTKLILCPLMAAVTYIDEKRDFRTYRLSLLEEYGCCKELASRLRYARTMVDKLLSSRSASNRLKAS

Structure (SMILES) | ΔTm at 10 µM [1] [°C] | ΔTm at 10 µM [2] [°C] | ΔTm at 10 µM [3] [°C] | ΔTm at 10 µM [4] [°C] | ΔTm at 10 µM [5] [°C] | ΔTm at 10 µM [6] [°C] | ΔTm at 10 µM [7] [°C] | ΔTm at 10 µM [8] [°C] | ΔTm at 10 µM [9] [°C] | ΔTm at 10 µM [10] [°C] | ΔTm at 10 µM [11] [°C] | ΔTm at 10 µM [12] [°C] | ΔTm at 10 µM [13] [°C]
Cc1ccc(Nc2nsnc(Nc3cccc(C(N)=O)c3)c2=O)cc1O [Compound 1, 3-({5-[(3-Hydroxy-4-methylphenyl)amino]-4-oxo-4H-1,2,6-thiadiazin-3-yl}amino)benzamide] | 0.3 | 0 | 1.8 | -0.4 | 0 | 0.5 | -0.2 | -0.3 | -0.6 | -0.6 | 0 | -0.6 | 0.6
Cc1ccc(Nc2nsnc(Nc3ccc(C(N)=O)cc3)c2=O)cc1O [Compound 2, 4-({5-[(3-Hydroxy-4-methylphenyl)amino]-4-oxo-4H-1,2,6-thiadiazin-3-yl}amino)benzamide] | -0.2 | 3 | 3.3 | -0.2 | 1.8 | 2.6 | 1.4 | 1 | -0.1 | 1.8 | 0.6 | 0.9 | 3.1
Cc1ccc(Nc2nsnc(Nc3ccc4c(c3)CS(=O)(=O)C4)c2=O)cc1O [Compound 3, 3-[(2,2-Dioxido-1,3-dihydrobenzo[c]thiophen-5-yl)amino]-5-[(3-hydroxy-4-methylphenyl)amino]-4H-1,2,6-thiadiazin-4-one] | 1.1 | 1.2 | 3 | 0.1 | 0 | 0.9 | 0.1 | 0.1 | -0.2 | 0.1 | 1 | -0.1 | 1.6
CNC(=O)c1ccccc1Nc1nsnc(Nc2cccc(CS(C)(=O)=O)c2)c1=O [Compound 4, N-Methyl-2-([5-({3-[(methylsulfonyl)methyl]phenyl}amino)-4-oxo-4H-1,2,6-thiadiazin-3-yl]-amino}-benzamide] | 0.2 | -0.3 | 0.2 | -0.1 | 0 | -0.3 | -0.3 | -0.1 | -0.8 | -0.3 | -0.2 | -0.5 | 0.6
CNC(=O)c1ccccc1Nc1nsnc(Nc2ccc(N3CCOCC3)cc2)c1=O [Compound 5, N-Methyl-2-({5-[(4-morpholinophenyl)amino]-4-oxo-4H-1,2,6-thiadiazin-3-yl}amino)benzamide] | 0.2 | -0.8 | 0.1 | -0.1 | 0 | -0.6 | -0.3 | 0.5 | -0.7 | -0.3 | -0.3 | -0.8 | 0.8

Source: PMC6019134, “1,2,6-Thiadiazinones as Novel Narrow Spectrum Calcium/Calmodulin-Dependent Protein Kinase Kinase 2 (CaMKK2) Inhibitors” (Molecules : A Journal of Synthetic Chemistry and Natural …, 2018)
